The conditions of data set [1]: in vivo; cited from earlier work.
For data set [2] the following is noted: 10 g/L, 25° C. (77° F.); cited from earlier work.
For data set [3], the system named is patients with oral mucositis pain/lesions. The data set can be described thus: Additional patients assessed after methylene blue oral rinse at 0.025%, 0.05% and 0.1% (Table 2).

In the case of `CN(C)c1ccc2nc3ccc(=[N+](C)C)cc-3sc2c1` [methylene blue], in data set [1], the blood-brain barrier passage entry is recorded as “crosses the blood-brain barrier”. In addition, the pH in water in data set [2] is 3. For the same compound, the analgesia result in data set [3] (0.05-0.1% methylene blue as a mouth rinse, almost all patients) was “sustained analgesia over a few days to several months”. The figures for the “onset (of MB effect)” value in data set [3] (MB 0.025% oral rinse) and in data set [3] (MB 0.05% oral rinse) were 2 D and 1 W, respectively. The tolerability entry in data set [3] (mouth rinse, case series) is “tolerated well”.

The record behind these values is patent publication US11413240B2 (Board of Regents, The University of Texas System, priority 2016, dated 2022).
